# Data: patent US7192746B2, “α-Isomaltosyltransferase, process for producing the same and use thereof” (Kabushiki Kaisha Hayashibara Seibutsu Kagaku Kenkyujo, priority 2000, dated 2007)
# How the values were obtained:
# Format in all cases: biochemical
# [1] = system: α-isomaltosyl-transferring enzyme from Bacillus globisporus C11; test: Specificity to transferring acceptor; details: panose as saccharide donor, 10 units/g substrate, 3.2% (w/v), 30° C., pH 6.0, 24 hours
# Outline: (§1)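 Candidate acceptor saccharides mixed with panose donor at equal concentration, 10 units/g substrate enzyme, total saccharide 3.2% (w/v), reacted 24 h at 30 °C, pH 6.0. Transfer product formation scored positive/negative by GLC (mono-/disaccharides) or HPLC (tri- and higher).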
# [2] = system: α-isomaltosyl-transferring enzyme from Bacillus globisporus C9; test: Specificity to transferring acceptor; details: panose as saccharide donor, 10 units/g substrate, 3.2% (w/v), 30° C., pH 6.0, 24 hours
# Outline: as §1
# [3] = system: α-isomaltosyl-transferring enzyme from Arthrobacter globiformis A19; test: Specificity to transferring acceptor; details: partially purified enzyme, panose as saccharide donor, 10 units/g substrate, 3.2% (w/v), 30° C., pH 6.0, 24 hours
# Outline: as §1
# [4] = system: α-isomaltosyl-transferring enzyme from Bacillus globisporus N75; test: Specificity to transferring acceptor; details: panose as saccharide donor, 10 units/g substrate, 3.2% (w/v), 30° C., pH 6.0, 24 hours
# Outline: as §1
# [5] = system: α-isomaltosyl-transferring enzyme from Arthrobacter ramosus S1; test: Specificity to transferring acceptor; details: panose as saccharide donor, 10 units/g substrate, 3.2% (w/v), 30° C., pH 6.0, 24 hours
# Outline: as §1
# [6] = system: α-isomaltosyl-transferring enzyme from Bacillus globisporus C11; test: Action on saccharides (substrates, TLC); set-up: key: −: there was found no substrate change before and after the enzymatic reaction; +: there were found both the reduction of substrate and the formation of cyclotetrasaccharide after the enzymatic reaction; details: 2 units/g substrate, 2% (w/v) substrate, 30° C., pH 6.0, 24 hours
# From the text: (§2) To examine the saccharides in the supernatant, they were separated from the supernatant by silica gel thin-layer chromatography (abbreviated as “TLC” hereinafter) using, as a developer, a mixture solution of n-butanol, pyridine, and water (=6:4:1), and, as a thin-layer plate, “[…] 60”, an aluminum plate (20×20 cm) for TLC commercialized by […]. The coloration of both the separated total sugars by the sulfuric acid-methanol method and the reducing saccharides by the diphenylamine-aniline method detected a non-reducing saccharide at a position with an Rf value of about 0.31, which was positive on the former detection method but negative on the latter detection method.
# (§3) It was tested whether saccharides can be used as substrates for the α-isomaltosyl-transferring enzyme. For the purpose, a solution of maltose, maltotriose, maltotetraose, maltopentaose, maltohexaose, maltoheptaose, isomaltose, isomaltotriose, panose, isomaltosylmaltose, isopanose, α,α-trehalose, kojibiose, nigerose, α,β-trehalose, cellobiose, gentibiose, maltitol, maltotriitol, lactose, sucrose, α-cyclodextrin, β-cyclodextrin, γ-cyclodextrin, soluble starch, pullulan, or dextran was prepared. To each of the above solutions was added two units/g substrate of a purified specimen of either α-isomaltosyl-transferring enzyme from Bacillus globisporus C9 obtained by the method in Experiment 4, Bacillus globisporus C11 obtained by the method in Experiment 7, Bacillus globisporus N75 obtained by the method in Experiment 11, or Arthrobacter ramosus S1 obtained by the method in Experiment 15, or a partially purified α-isomaltosyl-transferring enzyme from Arthrobacter globiformis A19 obtained by the method in Experiment 15. The resulting each solution was adjusted to give a substrate concentration of 2% (w/v) and incubated at 30° C. and pH 6.0 for 24 hours. The enzyme solutions before and after the enzymatic reactions were respectively analyzed on TLC as disclosed in Experiment 1 to confirm whether the enzymes acted on these substrates.
# [7] = system: α-isomaltosyl-transferring enzyme from Bacillus globisporus C9; test: Action on saccharides (substrates, TLC); set-up: key: −: there was found no substrate change before and after the enzymatic reaction; +: there were found both the reduction of substrate and the formation of cyclotetrasaccharide after the enzymatic reaction; details: 2 units/g substrate, 2% (w/v) substrate, 30° C., pH 6.0, 24 hours
# From the text: as §2, §3
# [8] = system: α-isomaltosyl-transferring enzyme from Arthrobacter globiformis A19; test: Action on saccharides (substrates, TLC); set-up: key: −: there was found no substrate change before and after the enzymatic reaction; +: there were found both the reduction of substrate and the formation of cyclotetrasaccharide after the enzymatic reaction; details: partially purified enzyme, 2 units/g substrate, 2% (w/v) substrate, 30° C., pH 6.0, 24 hours
# From the text: as §2, §3
# [9] = system: α-isomaltosyl-transferring enzyme from Bacillus globisporus N75; test: Action on saccharides (substrates, TLC); set-up: key: −: there was found no substrate change before and after the enzymatic reaction; +: there were found both the reduction of substrate and the formation of cyclotetrasaccharide after the enzymatic reaction; details: 2 units/g substrate, 2% (w/v) substrate, 30° C., pH 6.0, 24 hours
# From the text: as §2, §3
# [10] = system: α-isomaltosyl-transferring enzyme from Arthrobacter ramosus S1; test: Action on saccharides (substrates, TLC); set-up: key: −: there was found no substrate change before and after the enzymatic reaction; +: there were found both the reduction of substrate and the formation of cyclotetrasaccharide after the enzymatic reaction; details: 2 units/g substrate, 2% (w/v) substrate, 30° C., pH 6.0, 24 hours
# From the text: as §2, §3
Molecule,"Product of transferring reaction, Enzyme of Strain C11 [1]","Product of transferring reaction, Enzyme of Strain C9 [2]","Product of transferring reaction, Enzyme of Stain A19 [3]","Product of transferring reaction, Enzyme of Strain N75 [4]","Product of transferring reaction, Enzyme of Strain S1 [5]","Enzymatic action for forming cyclotetrasaccharide, Enzyme of Strain C11 [6]","Enzymatic action for forming cyclotetrasaccharide, Enzyme of Strain C9 [7]","Enzymatic action for forming cyclotetrasaccharide, Enzyme of Strain A19 [8]","Enzymatic action for forming cyclotetrasaccharide, Enzyme of Strain N75 [9]","Enzymatic action for forming cyclotetrasaccharide, Enzyme of Strain S1 [10]"
"O=C[C@H](O)[C@@H](O)[C@H](O[C@@H]1O[C@H](CO)[C@@H](O)[C@H](O)[C@H]1O)[C@H](O)CO [Cellobiose, cellobiose]",+ (a saccharide-transferred product was formed in an amount of over one percent but below 10% to the total sugars),+ (a saccharide-transferred product was formed in an amount of over one percent but below 10% to the total sugars),+ (a saccharide-transferred product was formed in an amount of over one percent but below 10% to the total sugars),+ (a saccharide-transferred product was formed in an amount of over one percent but below 10% to the total sugars),+ (a saccharide-transferred product was formed in an amount of over one percent but below 10% to the total sugars),−,−,−,−,−
"OC[C@H]1O[C@@H](OC[C@H]2OC(O)[C@H](O)[C@@H](O)[C@@H]2O)[C@H](O)[C@@H](O)[C@@H]1O (stereo partly shown) [Gentibiose, gentibiose]",++ (a saccharide-transferred product was formed in an amount of over 10% to the total sugars),++ (a saccharide-transferred product was formed in an amount of over 10% to the total sugars),+ (a saccharide-transferred product was formed in an amount of over one percent but below 10% to the total sugars),++ (a saccharide-transferred product was formed in an amount of over 10% to the total sugars),+ (a saccharide-transferred product was formed in an amount of over one percent but below 10% to the total sugars),−,−,−,−,−
"OC[C@H]1O[C@H](OC[C@H]2OC(O)[C@H](O)[C@@H](O)[C@@H]2O)[C@H](O)[C@@H](O)[C@@H]1O (stereo partly shown) [Isomaltose, isomaltose]",++ (a saccharide-transferred product was formed in an amount of over 10% to the total sugars),++ (a saccharide-transferred product was formed in an amount of over 10% to the total sugars),++ (a saccharide-transferred product was formed in an amount of over 10% to the total sugars),++ (a saccharide-transferred product was formed in an amount of over 10% to the total sugars),++ (a saccharide-transferred product was formed in an amount of over 10% to the total sugars),−,−,−,−,−
"OC[C@H]1O[C@H](OC[C@H]2O[C@H](OC[C@H]3OC(O)[C@H](O)[C@@H](O)[C@@H]3O)[C@H](O)[C@@H](O)[C@@H]2O)[C@H](O)[C@@H](O)[C@@H]1O (stereo partly shown) [Isomaltotriose, isomaltotriose]",+ (a saccharide-transferred product was formed in an amount of over one percent but below 10% to the total sugars),+ (a saccharide-transferred product was formed in an amount of over one percent but below 10% to the total sugars),+ (a saccharide-transferred product was formed in an amount of over one percent but below 10% to the total sugars),+ (a saccharide-transferred product was formed in an amount of over one percent but below 10% to the total sugars),++ (a saccharide-transferred product was formed in an amount of over 10% to the total sugars),−,−,−,−,−
"OC[C@H]1O[C@H](OC[C@H]2O[C@H](O[C@H]3[C@H](O)[C@@H](O)C(O)O[C@@H]3CO)[C@H](O)[C@@H](O)[C@@H]2O)[C@H](O)[C@@H](O)[C@@H]1O (stereo partly shown) [Panose, panose]",,,,,,+,+,+,+,+
maltoheptaose,,,,,,−,−,−,−,−
maltohexaose,,,,,,−,−,−,−,−
